Measurements reported in article PMC6938345, “Inhibition of complement activation, myeloperoxidase, NET formation and oxidant activity by PIC1 peptide variants” (PLoS ONE, 2019).
“Also recorded” adds a separate entry of the source.

Experiments:
[1] = Peptide solubility in water
Protocol: (PA) (Table 1) were synthesized by New England Peptide (Gardner, MA) to >90% purity. Sarcosine variants and PEG were dissolved in water and the pH was adjusted with NaOH. PA was dissolved in DMSO and then brought up to the final concentration with water resulting in 30% DMSO and pH adjusted. Antibody sensitized sheep erythrocytes (EA), purified C1q and factor B-depleted human sera were purchased from Complement Technology (Tyler, TX). Purified myeloperoxidase was purchased from Lee BioSolutions (Maryland Heights, MO) and tetramethylbenzidine (TMB) and PicoGreen were purchased from Thermo Fisher (Waltham MA).
(PA), peptide derivatives were synthesized with sarcosine residues substituted at all 15 positions, included a peptide in which the vicinal cysteines at positions 9 and 10 (C9,C10) were replaced with a single sarcosine residue (Table 1).

[2] = system: classical complement pathway (factor B-depleted human sera + antibody-sensitized sheep erythrocytes); assay: Classical pathway CH50-type hemolytic assay in factor B-depleted sera; format: cell-based; details: peptides 0.4 mM, P < 0.001
Protocol: For hemolytic complement assays, human red blood cells (RBCs) from type AB donors were purified, washed and standardized to 1 × 10^9 cells/ml, as previously described. Human sera from type O donors at a 20% final concentration was combined with 1 mM PIC1 or sarcosine variant peptides and the volume was brought up to 0.15 ml with GVBS^++ and 0.5 ml RBCs. For factor B-depleted sera hemolytic assays, a final of 0.005% factor B depleted sera was incubated with 1 mM PIC1 or sarcosine variant peptides with 0.1 ml antibody-sensitized sheep red blood cells (EA) in a final volume of 0.75 ml GVBS^++. The samples were incubated for 1 hour at 37 °C and then 1.0 ml of GVBS^-—was added to the factor B-depleted samples to stop the reaction. The samples were spun at 3,000 rpm for 5 minutes and the supernatant was collected and read at 412 nm. Values are represented as a percent of the positive control, which consists of human O sera and AB red blood cells in GVBS^++ buffer. […]
Fig 1 Sarcosine variant inhibition of complement activation in hemolytic assays and C1q binding. […] D) Half-maximal binding concentrations were calculated for each peptide’s binding curve.

[3] = molecular target: T1, C1q (Homo sapiens, UniProt P02745+P02746+P02747); assay: C1q binding ELISA-type assay; details: C1q as capture substrate
T1 construct: purchased Complement Technology (Tyler, TX)
T1 sequence (P02745 23-245): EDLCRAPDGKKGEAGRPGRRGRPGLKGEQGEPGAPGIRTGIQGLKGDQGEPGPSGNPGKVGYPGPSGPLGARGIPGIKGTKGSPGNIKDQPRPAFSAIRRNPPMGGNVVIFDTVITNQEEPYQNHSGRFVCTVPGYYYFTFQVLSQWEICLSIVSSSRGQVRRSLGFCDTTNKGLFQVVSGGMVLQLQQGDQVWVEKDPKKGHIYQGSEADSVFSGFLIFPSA
T1 sequence (P02746 28-253): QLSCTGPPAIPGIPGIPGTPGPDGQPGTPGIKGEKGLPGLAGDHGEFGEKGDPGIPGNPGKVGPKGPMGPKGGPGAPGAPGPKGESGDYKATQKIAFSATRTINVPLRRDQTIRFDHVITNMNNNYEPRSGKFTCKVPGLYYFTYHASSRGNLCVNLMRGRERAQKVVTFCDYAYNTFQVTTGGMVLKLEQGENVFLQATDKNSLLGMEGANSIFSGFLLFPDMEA
T1 sequence (P02747 29-245): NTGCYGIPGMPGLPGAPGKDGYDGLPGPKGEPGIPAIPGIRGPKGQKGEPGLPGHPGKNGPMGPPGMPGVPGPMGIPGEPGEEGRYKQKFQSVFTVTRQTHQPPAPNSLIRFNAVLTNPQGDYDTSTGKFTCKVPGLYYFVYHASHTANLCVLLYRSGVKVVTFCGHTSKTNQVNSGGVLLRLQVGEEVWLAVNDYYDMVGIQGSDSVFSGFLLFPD
Protocol: An Immunlon-2 HB ELISA plate was coated with 1 μg/ml C1q or MPO in bicarbonate buffer overnight at 4 °C. The plates were washed with PBST (phosphate buffered saline + 0.1% Tween) and then blocked with 1% gelatin/PBS for 2 hours at room temperature. After washing, the plates were incubated with PA or sarcosine variant peptides starting at 2.5 mg/ml and then serially diluted in 1% gelatin/PBS for 1 hour at room temperature. After washing, the plates were probed with rabbit anti-PA (developed with Cocalico Biologicals, Reamstown, PA) at 1:1000 in 1% gelatin/PBS for 1 hour, room temperature, followed by a goat anti-rabbit HRP (Sigma Aldrich, St Louis, MO) at 1:1,000 in 1% gelatin/PBS for 1 hour at room temperature with a washing step in between. Wells were developed using TMB substrate solution, stopped using 1 N H2SO4, and read at 450 nm in a plate reader.
We then tested peptide variant binding to C1q in an ELISA-type assay in which the C1q is used as the capture substrate. Binding curves for each peptide is shown in Fig 1C, from which half-maximal binding concentrations were calculated (Fig 1D). […] Higher concentrations of DMSO interfere with the detecting reagents resulting in a partial binding curve.

[4] = system: purified human neutrophils; assay: NETosis assay, free DNA by PicoGreen; format: cell-based; details: Average of n = 3; peptide 2 mM
Protocol: NETosis assays with immune complexes were performed as previously described. Briefly, normal human serum was stimulated with ovalbumin-antiovalbumin immune complexes in GVBS^++ for 30 minutes at 37 °C. This mixture along with 0.05% H2O2 was then added to purified human neutrophils resuspended in RPMI with or without sarcosine variants (2 mM), allowing NETosis to occur. Quantitation of free DNA released from the neutrophils was performed using PicoGreen. Slides were stained with DAPI (Southern Biotech, Birmingham, AL) and the following antibodies, mouse anti-elastase (Invitrogen, Carlsbad, CA) was used with the secondary goat anti-mouse Alexa Fluor 568 (Novus Biologicals, Centennial, CO) and rabbit anti-histone H3 (Abcam, Cambridge MA) with goat anti-rabbit Alexa Fluor 488 (Novus Biologicals) to visualize formation of NETs which were imaged with fluorescence microscopy with an Olympus BX53 microscope.
In this assay purified human neutrophils are stimulated with normal human serum activated with ovalbumin-antiovalbumin immune complexes and hydrogen peroxide. Free DNA expressed from the neutrophils is then measured in a PicoGreen assay.
Fig 5 Sarcosine variant inhibition of NET formation. Fluorescence microscopy images of NET formation after neutrophil stimulation with immune complexes (IC) and hydrogen peroxide (H2O2) compared with neutrophil only control. Variant I8 inhibition of NET formation is shown in the third row. Histones are probed with anti-histone antibody (αhistone), neutrophil elastase is probed with anti-neutrophil elastase (αNE) and DNA is stained with DAPI. Representative images are shown. […] Purified human neutrophils were stimulated with 2% normal human sera pre-incubated with ovalbumin-antiovalbumin immune complexes, and 0.05% H2O2. Sarcosine peptides and PIC1 were added to the sera to a final concentration of 2 mM. Data are the means of n = 3 independent experiments + SEM.

In the case of `CC[C@H](C)[C@H](N)C(=O)N[C@@H](C)C(=O)N[C@@H](CC(C)C)C(=O)N[C@H](C(=O)N[C@@H](CC(C)C)C(=O)N[C@@H](CCC(=O)O)C(=O)N1CCC[C@H]1C(=O)N(C)CC(=O)N[C@@H](CS)C(=O)N[C@@H](CS)C(=O)N[C@@H](CCC(N)=O)C(=O)N[C@@H](CCC(=O)O)C(=O)N[C@@H](CCCNC(=N)N)C(=O)N[C@@H](C)C(=O)N[C@@H](C)C(=O)O)[C@@H](C)CC` [I8], the “solubility in water (in words)” value [1] is reported as “soluble in water”, the “inhibition of hemolysis more than PA-dPEG24” value [2] is reported as 75% and the “binding to C1q (in words)” value [3] is reported as “superior binding to C1q; also recorded: slightly superior to that of PA-dPEG24”. For the same compound, the “PICO green - NETs, free DNA release” value [4] was 43.
